Test results from the supplement of paper PMC8882468.

system: HCI-012 (organoid from a breast cancer xenograft); assay: CTG-3D luminescence at 96 h relative to day-0 seeding control (ratio to day 0); higher = more growth / less cytotoxicity; PDxO 3D drug screen, 96 h, CTG-3D normalised to day-0 seeding control.; conditions: 0.005 µM; days in culture: 201

First: COc1cc2c(Oc3ccc4[nH]c(C)cc4c3F)ncnc2cc1OCCCN1CCCC1 [cediranib]
Second: Cc1cc(Nc2ncnc3ccc(NC4=NC(C)(C)CO4)cc23)ccc1Oc1ccn2ncnc2c1 [tucatinib]
The “CTG-3D luminescence at 96 h” value of the first is lower: 1.5 for the first, 1.62 for the second.

First: CC(C)n1nc(-c2ccc3oc(N)nc3c2)c2c(N)ncnc21 [sapanisertib]
Second: C=CCn1c(=O)c2cnc(Nc3ccc(N4CCN(C)CC4)cc3)nc2n1-c1cccc(C(C)(C)O)n1 [adavosertib]
The “CTG-3D luminescence at 96 h” value of the first is higher: 1.89 for the first, 1.6 for the second.

Going from C[C@H](NC(=O)CCC(F)(F)F)C(=O)N[C@@H]1C(=O)N(CCO)c2ncccc2-c2ccccc21 [crenigacestat] to O=C(/C=C/c1cccnc1)NCCCCC1CCN(C(=O)c2ccccc2)CC1 [FK866], the “CTG-3D luminescence at 96 h” value falls from 1.82 to 0.33.

First: C[C@]12CC[C@@H]3c4ccc(O)cc4C[C@@H](CCCCCCCCC[S+]([O-])CCCC(F)(F)C(F)(F)F)[C@H]3[C@@H]1CC[C@@H]2O (some centres not stated) [fulvestrant]
Second: O=C(c1ccc(F)c(F)c1Nc1ccc(I)cc1F)N1CC(O)([C@@H]2CCCCN2)C1 [cobimetinib]
The “CTG-3D luminescence at 96 h” value of the first is lower: 1.52 for the first, 1.69 for the second.

In the case of CS(=O)(=O)c1ccc(C(=O)Nc2ccc(Cl)c(-c3ccccn3)c2)c(Cl)c1 [vismodegib], the “CTG-3D luminescence at 96 h” value was 1.72.

same assay, conditions: 0.1 µM; days in culture: 143

Compared with COc1cc2c(Oc3ccc4[nH]c(C)cc4c3F)ncnc2cc1OCCCN1CCCC1 [cediranib], Cc1cc(Nc2ncnc3ccc(NC4=NC(C)(C)CO4)cc23)ccc1Oc1ccn2ncnc2c1 [tucatinib] is lower in “CTG-3D luminescence at 96 h” value: 2.55 for the first, 2.39 for the second.

First: CC(C)n1nc(-c2ccc3oc(N)nc3c2)c2c(N)ncnc21 [sapanisertib]
Second: C=CCn1c(=O)c2cnc(Nc3ccc(N4CCN(C)CC4)cc3)nc2n1-c1cccc(C(C)(C)O)n1 [adavosertib]
The “CTG-3D luminescence at 96 h” value of the first is lower: 1.06 for the first, 2.56 for the second.

Going from C[C@H](NC(=O)CCC(F)(F)F)C(=O)N[C@@H]1C(=O)N(CCO)c2ncccc2-c2ccccc21 [crenigacestat] to O=C(/C=C/c1cccnc1)NCCCCC1CCN(C(=O)c2ccccc2)CC1 [FK866], the “CTG-3D luminescence at 96 h” value falls from 2.49 to 0.0872.

First: C[C@]12CC[C@@H]3c4ccc(O)cc4C[C@@H](CCCCCCCCC[S+]([O-])CCCC(F)(F)C(F)(F)F)[C@H]3[C@@H]1CC[C@@H]2O (some centres not stated) [fulvestrant]
Second: O=C(c1ccc(F)c(F)c1Nc1ccc(I)cc1F)N1CC(O)([C@@H]2CCCCN2)C1 [cobimetinib]
The “CTG-3D luminescence at 96 h” value of the first is higher: 2.41 for the first, 1.87 for the second.

In the case of CS(=O)(=O)c1ccc(C(=O)Nc2ccc(Cl)c(-c3ccccn3)c2)c(Cl)c1 [vismodegib], the “CTG-3D luminescence at 96 h” value was 2.49.

same assay, conditions: 0.1 µM; days in culture: 162

Compared with COc1cc2c(Oc3ccc4[nH]c(C)cc4c3F)ncnc2cc1OCCCN1CCCC1 [cediranib], Cc1cc(Nc2ncnc3ccc(NC4=NC(C)(C)CO4)cc23)ccc1Oc1ccn2ncnc2c1 [tucatinib] is higher in “CTG-3D luminescence at 96 h” value: 2.43 for the first, 3.58 for the second.

Going from CC(C)n1nc(-c2ccc3oc(N)nc3c2)c2c(N)ncnc21 [sapanisertib] to C=CCn1c(=O)c2cnc(Nc3ccc(N4CCN(C)CC4)cc3)nc2n1-c1cccc(C(C)(C)O)n1 [adavosertib], the “CTG-3D luminescence at 96 h” value rises from 1.27 to 3.54.

Going from C[C@H](NC(=O)CCC(F)(F)F)C(=O)N[C@@H]1C(=O)N(CCO)c2ncccc2-c2ccccc21 [crenigacestat] to O=C(/C=C/c1cccnc1)NCCCCC1CCN(C(=O)c2ccccc2)CC1 [FK866], the “CTG-3D luminescence at 96 h” value falls from 2.93 to 0.0723.

First: C[C@]12CC[C@@H]3c4ccc(O)cc4C[C@@H](CCCCCCCCC[S+]([O-])CCCC(F)(F)C(F)(F)F)[C@H]3[C@@H]1CC[C@@H]2O (some centres not stated) [fulvestrant]
Second: O=C(c1ccc(F)c(F)c1Nc1ccc(I)cc1F)N1CC(O)([C@@H]2CCCCN2)C1 [cobimetinib]
The “CTG-3D luminescence at 96 h” value of the first is higher: 3.05 for the first, 2.85 for the second.

With CS(=O)(=O)c1ccc(C(=O)Nc2ccc(Cl)c(-c3ccccn3)c2)c(Cl)c1 [vismodegib] the “CTG-3D luminescence at 96 h” value was 2.88.

same assay, conditions: 0.1 µM; days in culture: 201

Compared with COc1cc2c(Oc3ccc4[nH]c(C)cc4c3F)ncnc2cc1OCCCN1CCCC1 [cediranib], Cc1cc(Nc2ncnc3ccc(NC4=NC(C)(C)CO4)cc23)ccc1Oc1ccn2ncnc2c1 [tucatinib] is higher in “CTG-3D luminescence at 96 h” value: 1.45 for the first, 1.73 for the second.

Compared with CC(C)n1nc(-c2ccc3oc(N)nc3c2)c2c(N)ncnc21 [sapanisertib], C=CCn1c(=O)c2cnc(Nc3ccc(N4CCN(C)CC4)cc3)nc2n1-c1cccc(C(C)(C)O)n1 [adavosertib] is higher in “CTG-3D luminescence at 96 h” value: 0.938 for the first, 1.66 for the second.

Compared with C[C@H](NC(=O)CCC(F)(F)F)C(=O)N[C@@H]1C(=O)N(CCO)c2ncccc2-c2ccccc21 [crenigacestat], O=C(/C=C/c1cccnc1)NCCCCC1CCN(C(=O)c2ccccc2)CC1 [FK866] is lower in “CTG-3D luminescence at 96 h” value: 1.75 for the first, 0.0389 for the second.

First: C[C@]12CC[C@@H]3c4ccc(O)cc4C[C@@H](CCCCCCCCC[S+]([O-])CCCC(F)(F)C(F)(F)F)[C@H]3[C@@H]1CC[C@@H]2O (some centres not stated) [fulvestrant]
Second: O=C(c1ccc(F)c(F)c1Nc1ccc(I)cc1F)N1CC(O)([C@@H]2CCCCN2)C1 [cobimetinib]
The “CTG-3D luminescence at 96 h” value of the first is lower: 1.85 for the first, 1.91 for the second.

In the case of CS(=O)(=O)c1ccc(C(=O)Nc2ccc(Cl)c(-c3ccccn3)c2)c(Cl)c1 [vismodegib], the “CTG-3D luminescence at 96 h” value was 1.56.

same assay, conditions: 1 µM; days in culture: 143

Compared with COc1cc2c(Oc3ccc4[nH]c(C)cc4c3F)ncnc2cc1OCCCN1CCCC1 [cediranib], Cc1cc(Nc2ncnc3ccc(NC4=NC(C)(C)CO4)cc23)ccc1Oc1ccn2ncnc2c1 [tucatinib] is higher in “CTG-3D luminescence at 96 h” value: 2.33 for the first, 2.43 for the second.

First: CC(C)n1nc(-c2ccc3oc(N)nc3c2)c2c(N)ncnc21 [sapanisertib]
Second: C=CCn1c(=O)c2cnc(Nc3ccc(N4CCN(C)CC4)cc3)nc2n1-c1cccc(C(C)(C)O)n1 [adavosertib]
The “CTG-3D luminescence at 96 h” value of the first is lower: 0.799 for the first, 2.11 for the second.

Compared with C[C@H](NC(=O)CCC(F)(F)F)C(=O)N[C@@H]1C(=O)N(CCO)c2ncccc2-c2ccccc21 [crenigacestat], O=C(/C=C/c1cccnc1)NCCCCC1CCN(C(=O)c2ccccc2)CC1 [FK866] is lower in “CTG-3D luminescence at 96 h” value: 2.07 for the first, 0.0769 for the second.

Compared with C[C@]12CC[C@@H]3c4ccc(O)cc4C[C@@H](CCCCCCCCC[S+]([O-])CCCC(F)(F)C(F)(F)F)[C@H]3[C@@H]1CC[C@@H]2O (some centres not stated) [fulvestrant], O=C(c1ccc(F)c(F)c1Nc1ccc(I)cc1F)N1CC(O)([C@@H]2CCCCN2)C1 [cobimetinib] is lower in “CTG-3D luminescence at 96 h” value: 2.43 for the first, 1.57 for the second.

For CS(=O)(=O)c1ccc(C(=O)Nc2ccc(Cl)c(-c3ccccn3)c2)c(Cl)c1 [vismodegib], the “CTG-3D luminescence at 96 h” value was 2.42.

same assay, conditions: 1 µM; days in culture: 162

Going from COc1cc2c(Oc3ccc4[nH]c(C)cc4c3F)ncnc2cc1OCCCN1CCCC1 [cediranib] to Cc1cc(Nc2ncnc3ccc(NC4=NC(C)(C)CO4)cc23)ccc1Oc1ccn2ncnc2c1 [tucatinib], the “CTG-3D luminescence at 96 h” value rises from 2.26 to 2.71.

First: CC(C)n1nc(-c2ccc3oc(N)nc3c2)c2c(N)ncnc21 [sapanisertib]
Second: C=CCn1c(=O)c2cnc(Nc3ccc(N4CCN(C)CC4)cc3)nc2n1-c1cccc(C(C)(C)O)n1 [adavosertib]
The “CTG-3D luminescence at 96 h” value of the first is lower: 0.748 for the first, 2.56 for the second.

First: C[C@H](NC(=O)CCC(F)(F)F)C(=O)N[C@@H]1C(=O)N(CCO)c2ncccc2-c2ccccc21 [crenigacestat]
Second: O=C(/C=C/c1cccnc1)NCCCCC1CCN(C(=O)c2ccccc2)CC1 [FK866]
The “CTG-3D luminescence at 96 h” value of the first is higher: 1.87 for the first, 0.0448 for the second.

Going from C[C@]12CC[C@@H]3c4ccc(O)cc4C[C@@H](CCCCCCCCC[S+]([O-])CCCC(F)(F)C(F)(F)F)[C@H]3[C@@H]1CC[C@@H]2O (some centres not stated) [fulvestrant] to O=C(c1ccc(F)c(F)c1Nc1ccc(I)cc1F)N1CC(O)([C@@H]2CCCCN2)C1 [cobimetinib], the “CTG-3D luminescence at 96 h” value falls from 2.77 to 1.59.

For CS(=O)(=O)c1ccc(C(=O)Nc2ccc(Cl)c(-c3ccccn3)c2)c(Cl)c1 [vismodegib], the “CTG-3D luminescence at 96 h” value was 2.4.

same assay, conditions: 1 µM; days in culture: 201

Going from COc1cc2c(Oc3ccc4[nH]c(C)cc4c3F)ncnc2cc1OCCCN1CCCC1 [cediranib] to Cc1cc(Nc2ncnc3ccc(NC4=NC(C)(C)CO4)cc23)ccc1Oc1ccn2ncnc2c1 [tucatinib], the “CTG-3D luminescence at 96 h” value rises from 2.29 to 2.34.

First: CC(C)n1nc(-c2ccc3oc(N)nc3c2)c2c(N)ncnc21 [sapanisertib]
Second: C=CCn1c(=O)c2cnc(Nc3ccc(N4CCN(C)CC4)cc3)nc2n1-c1cccc(C(C)(C)O)n1 [adavosertib]
The “CTG-3D luminescence at 96 h” value of the first is lower: 1.37 for the first, 2.25 for the second.

Going from C[C@H](NC(=O)CCC(F)(F)F)C(=O)N[C@@H]1C(=O)N(CCO)c2ncccc2-c2ccccc21 [crenigacestat] to O=C(/C=C/c1cccnc1)NCCCCC1CCN(C(=O)c2ccccc2)CC1 [FK866], the “CTG-3D luminescence at 96 h” value falls from 2.3 to 0.128.

Going from C[C@]12CC[C@@H]3c4ccc(O)cc4C[C@@H](CCCCCCCCC[S+]([O-])CCCC(F)(F)C(F)(F)F)[C@H]3[C@@H]1CC[C@@H]2O (some centres not stated) [fulvestrant] to O=C(c1ccc(F)c(F)c1Nc1ccc(I)cc1F)N1CC(O)([C@@H]2CCCCN2)C1 [cobimetinib], the “CTG-3D luminescence at 96 h” value rises from 2.21 to 2.24.

For CS(=O)(=O)c1ccc(C(=O)Nc2ccc(Cl)c(-c3ccccn3)c2)c(Cl)c1 [vismodegib], the “CTG-3D luminescence at 96 h” value was 2.33.

same assay, conditions: 10 µM; days in culture: 143

Going from COc1cc2c(Oc3ccc4[nH]c(C)cc4c3F)ncnc2cc1OCCCN1CCCC1 [cediranib] to Cc1cc(Nc2ncnc3ccc(NC4=NC(C)(C)CO4)cc23)ccc1Oc1ccn2ncnc2c1 [tucatinib], the “CTG-3D luminescence at 96 h” value rises from 0.0236 to 1.99.

Going from CC(C)n1nc(-c2ccc3oc(N)nc3c2)c2c(N)ncnc21 [sapanisertib] to C=CCn1c(=O)c2cnc(Nc3ccc(N4CCN(C)CC4)cc3)nc2n1-c1cccc(C(C)(C)O)n1 [adavosertib], the “CTG-3D luminescence at 96 h” value falls from 0.586 to 0.226.

Going from C[C@H](NC(=O)CCC(F)(F)F)C(=O)N[C@@H]1C(=O)N(CCO)c2ncccc2-c2ccccc21 [crenigacestat] to O=C(/C=C/c1cccnc1)NCCCCC1CCN(C(=O)c2ccccc2)CC1 [FK866], the “CTG-3D luminescence at 96 h” value falls from 2.78 to 0.0863.

Compared with C[C@]12CC[C@@H]3c4ccc(O)cc4C[C@@H](CCCCCCCCC[S+]([O-])CCCC(F)(F)C(F)(F)F)[C@H]3[C@@H]1CC[C@@H]2O (some centres not stated) [fulvestrant], O=C(c1ccc(F)c(F)c1Nc1ccc(I)cc1F)N1CC(O)([C@@H]2CCCCN2)C1 [cobimetinib] is lower in “CTG-3D luminescence at 96 h” value: 2.43 for the first, 0.758 for the second.

CS(=O)(=O)c1ccc(C(=O)Nc2ccc(Cl)c(-c3ccccn3)c2)c(Cl)c1 [vismodegib] was tested, and the “CTG-3D luminescence at 96 h” value was 2.55.
